Experimental data as given in patent US12606566B2, “Substituted cyclopenta[4,5]pyrrolo[1,2-a]pyrazines as bruton's tyrosine kinase inhibitors” (Shanghai Synergy Pharmaceutical Sciences Co., Ltd., priority 2020, dated 2026).

Tests used:
[1] = tested on: tumour cells (A20 5E6 cells); assay: Inhibitory effect on tumour cell proliferation (CCK8); format: cell-based; settings: CCK8 absorbance, read-out: Inhibitory effect of the compound on cell proliferation IC50
Protocol: This experiment was to determine the effect of the compound on cell proliferation.
To determine the inhibitory effect of the compound on the proliferation of tumour cells, tumour cells (A20 5E6 cells) were cultured to a certain amount and seeded into 96-well plates. […] The absorbance value was measured after the addition of CCK8 and 2 h incubation to determine the inhibitory effect of the compound on cell proliferation. The IC50 value of the compound was obtained by data fitted with Graphpad.

BTK kinase = BTK kinase (Homo sapiens, UniProt Q06187); assay: BTK kinase inhibitory activity, mobility shift method; format: biochemical; settings: compound co-incubated with the enzyme for 30 minutes
Chain of BTK kinase (Q06187 whole entry): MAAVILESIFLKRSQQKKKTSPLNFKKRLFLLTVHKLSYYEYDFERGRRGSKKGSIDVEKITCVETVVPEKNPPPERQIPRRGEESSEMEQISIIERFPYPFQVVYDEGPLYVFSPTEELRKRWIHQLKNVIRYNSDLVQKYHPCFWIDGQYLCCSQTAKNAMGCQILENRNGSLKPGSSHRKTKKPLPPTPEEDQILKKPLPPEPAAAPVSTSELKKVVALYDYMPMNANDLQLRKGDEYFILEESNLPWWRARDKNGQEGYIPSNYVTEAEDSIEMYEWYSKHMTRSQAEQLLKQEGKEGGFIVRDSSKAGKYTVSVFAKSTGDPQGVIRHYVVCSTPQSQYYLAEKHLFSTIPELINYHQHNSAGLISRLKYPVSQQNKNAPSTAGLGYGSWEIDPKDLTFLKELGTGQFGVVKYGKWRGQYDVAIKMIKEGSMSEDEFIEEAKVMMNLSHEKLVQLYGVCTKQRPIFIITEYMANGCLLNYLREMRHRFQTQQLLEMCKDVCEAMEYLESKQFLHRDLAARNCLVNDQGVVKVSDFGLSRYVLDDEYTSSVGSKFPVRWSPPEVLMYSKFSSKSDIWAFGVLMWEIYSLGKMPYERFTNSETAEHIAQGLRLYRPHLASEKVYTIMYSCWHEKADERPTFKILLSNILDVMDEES
Protocol: The BTK kinase inhibitory activity of the compound was determined using a mobility shift method with the reaction system (kinase solution, ATP, kinase substrate2). The compound was co-incubated with the enzyme for 30 minutes, and then the conversion rate was read using the Caliper EZ reader. The compound inhibition rate was determined using the calculation formula and the data was fitted using Graphpad to derive the IC50 value for the compounds of this application.

| IC50 [1] | IC50 (BTK kinase) | Structure (SMILES) |
| --- | --- | --- |
| 23 nM | 0.59 nM | C[C@H]1CN(C2COC2)CCN1c1ccc(Nc2cc(-c3ccnc(N4CCn5c6c(c(Cl)c5C4=O)CC(C)(C)C6)c3CO)cn(C)c2=O)nc1 [Example H02, (S)-9-chloro-2-(3′-(hydroxymethyl)-1-methyl-5-((5-(2-methyl-4-(oxetan-3-yl)piperazin-1-yl)pyridin-2-yl)amino)-6-oxo-1,6-dihydro-[3,4′-bipyridin]-2′-yl)-7,7-dimethyl-3,4,7,8-tetrahydro-2H-cyclopenta[4,5]pyrrolo[1,2-a]pyrazin-1(6H)-one] |
| 61 nM | 0.14 nM | Cc1c2c(n3c1C(=O)N(c1nccc(-c4cc(Nc5ccc(N6CCN(C7COC7)C[C@@H]6C)cn5)c(=O)n(C)c4)c1CO)CC3)CC(C)(C)C2 [Example H03, (S)-2-(3′-(hydroxymethyl)-1-methyl-5-((5-(2-methyl-4-(oxetan-3-yl)piperazin-1-yl)pyridin-2-yl)amino)-6-oxo-1,6-dihydro-[3,4′-bipyridin]-2′-yl)-7,7,9-trimethyl-3,4,7,8-tetrahydro-2H-cyclopenta[4,5]pyrrolo[1,2-a]pyrazin-1(6H)-one] |
| 26 nM | 0.26 nM | CC(C)n1cc(-c2ccnc(N3CCn4c(cc5c4CC(C)(C)C5)C3=O)c2CO)cc(Nc2ccc(N3CCN(C4COC4)C[C@@H]3C)cn2)c1=O [Example H04, (S)-2-(3′-(hydroxymethyl)-1-isopropyl-5-((5-(2-methyl-4-(oxetan-3-yl)piperazin-1-yl)pyridin-2-yl)amino)-6-oxo-1,6-dihydro-[3,4′-bipyridin]-2′-yl)-7,7-dimethyl-3,4,7,8-tetrahydro-2H-cyclopenta[4,5]pyrrolo[1,2-a]pyrazin-1(6H)-one] |
| 23 nM | 0.69 nM | C[C@H]1CN(C2COC2)CCN1c1ccc(Nc2cc(-c3cc(C#N)cc(N4CCn5c(cc6c5CC(C)(C)C6)C4=O)c3CO)cn(C)c2=O)nc1 [Example H05, (S)-3-(7,7-dimethyl-1-oxo-1,3,4,6,7,8-hexahydro-2H-cyclopenta [4,5]pyrrolo[1,2-a]pyrazin-2-yl)-4-(hydroxymethyl)-5-(1-methyl-5-((5-(2-methyl-4-(oxetan-3-yl)piperazin-1-yl)pyridin-2-yl)amino)-6-oxo-1,6-dihydropyridin-3-yl) benzonitrile] |
| 31 nM | 0.41 nM | C[C@H]1CN(C2COC2)CCN1c1ccc(Nc2cc(-c3ccc(C#N)c(N4CCn5c(cc6c5CC(C)(C)C6)C4=O)c3CO)cn(C)c2=O)nc1 [Example H06, (S)-2-(7,7-dimethyl-1-oxo-1,3,4,6,7,8-hexahydro-2H-cyclopenta [4,5]pyrrolo[1,2-a]pyrazin-2-yl)-3-(hydroxymethyl)-4-(1-methyl-5-((5-(2-methyl-4-(oxetan-3-yl)piperazin-1-yl)pyridin-2-yl)amino)-6-oxo-1,6-dihydropyridin-3-yl) benzonitrile] |
| 40 nM | 0.38 nM | C[C@H]1CN(C2COC2)CCN1c1ccc(Nc2cc(-c3c(C#N)ccc(N4CCn5c(cc6c5CC(C)(C)C6)C4=O)c3CO)cn(C)c2=O)nc1 [Example H07, (S)-4-(7,7-dimethyl-1-oxo-1,3,4,6,7,8-hexahydro-2H-cyclopenta [4,5]pyrrolo[1,2-a]pyrazin-2-yl)-3-(hydroxymethyl)-2-(1-methyl-5-((5-(2-methyl-4-(oxetan-3-yl)piperazin-1-yl)pyridin-2-yl)amino)-6-oxo-1,6-dihydropyridin-3-yl) benzonitrile] |
| 29 nM | 0.23 nM | CN1CCN(c2ccc(Nc3cc(-c4ccnc(N5CCn6c(cc7c6CC(C)(C)C7)C5=O)c4CO)nc4ccoc34)nc2)CC1 [Example H08, 2-(3-(hydroxymethyl)-4-(7-((5-(4-methylpiperazin-1-yl)pyridin-2-yl)amino)furo[3,2-b]pyridin-5-yl)pyridin-2-yl)-7,7-dimethyl-3,4,7,8-tetrahydro-2H-cyclopenta[4,5]pyrrolo[1,2-a]pyrazin-1(6H)-one] |
| 31 nM | 0.71 nM | CC1(C)Cc2cc3n(c2C1)CCN(c1nccc(-c2cc(Nc4ccc(N5CCN(C6COC6)CC5)cn4)c4occc4n2)c1CO)C3=O [Example H09, 2-(3-(hydroxymethyl)-4-(7-((5-(4-(oxetan-3-yl)piperazin-1-yl)pyridin-2-yl)amino)furo[3,2-b]pyridin-5-yl)pyridin-2-yl)-7,7-dimethyl-3,4,7,8-tetrahydro-2H-cyclopenta[4,5]pyrrolo[1,2-a]pyrazin-1(6H)-one] |
| 21 nM | 0.21 nM | Cn1cc(-c2ccnc(N3CCn4c5c(c(F)c4C3=O)CC(C)(C)C5)c2CO)cc(Nc2ccc(N3CCN(C4COC4)CC3)cn2)c1=O [Example H10, 9-fluoro-2-(3′-(hydroxymethyl)-1-methyl-5-((5-(4-(oxetan-3-yl)piperazin-1-yl)pyridin-2-yl)amino)-6-oxo-1,6-dihydro-[3,4′-bipyridin]-2′-yl)-7,7-dimethyl-3,4,7,8-tetrahydro-2H-cyclopenta[4,5]pyrrolo[1,2-a]pyrazin-1(6H)-one] |
| – | 0.65 nM | C[C@H]1CN(C2COC2)CCN1c1ccc(Nc2cc(-c3ccnc(N4CCn5c6c(c(C#N)c5C4=O)CC(C)(C)C6)c3CO)cn(C)c2=O)nc1 [Example H18, (S)-2-(3′-(hydroxymethyl)-1-methyl-5-((5-(2-methyl-4-(oxetan-3-yl)piperazin-1-yl)pyridin-2-yl)amino)-6-oxo-1,6-dihydro-[3,4′-bipyridin]-2′-yl)-7,7-dimethyl-1-oxo-1,3,4,6,7,8-hexahydro-2H-cyclopenta[4,5]pyrrolo[1,2-a]pyrazine-9-carbonitrile] |
| – | 0.52 nM | C[C@H]1CN(C2COC2)CCN1c1ccc(Nc2cc(-c3ccnc(N4CCn5c6c(c(C(F)(F)F)c5C4=O)CC(C)(C)C6)c3CO)cn(C)c2=O)nc1 [Example H19, (S)-2-(3′-(hydroxymethyl)-1-methyl-5-((5-(2-methyl-4-(oxetan-3-yl)piperazin-1-yl)pyridin-2-yl)amino)-6-oxo-1,6-dihydro-[3,4′-bipyridin]-2′-yl)-7,7-dimethyl-9-(trifluoromethyl)-3,4,7,8-hexahydro-2H-cyclopenta[4,5]pyrrolo[1,2-a]pyrazine-1(6H)-one] |
| – | 0.55 nM | CCOc1c2c(n3c1C(=O)N(c1nccc(-c4cc(Nc5ccc(N6CCN(C7COC7)C[C@@H]6C)cn5)c(=O)n(C)c4)c1CO)CC3)CC(C)(C)C2 [Example H20, (S)-9-ethoxy-2-(3′-(hydroxymethyl)-1-methyl-5-((5-(2-methyl-4-(oxetan-3-yl)piperazin-1-yl)pyridin-2-yl)amino)-6-oxo-1,6-dihydro-[3,4′-bipyridyl]-2′-yl)-7,7-dimethyl-3,4,7,8-tetrahydro-2H-cyclopenta[4,5]pyrrolo[1,2-a]pyrazin-1(6H)-one] |
| – | 0.51 nM | C[C@H]1CN(C2COC2)CCN1c1ccc(Nc2cc(-c3ccnc(N4CCn5c6c(c(OC7CC7)c5C4=O)CC(C)(C)C6)c3CO)cn(C)c2=O)nc1 [Example H23, (S)-9-cyclopropoxy-2-(3′-(hydroxymethyl)-1-methyl-5-((5-(2-methyl-4-(oxetan-3-yl)piperazin-1-yl)pyridin-2-yl)amino)-6-oxo-1,6-dihydro-[3,4′-bipyridin]-2′-yl)-7,7-dimethyl-3,4,7,8-tetrahydro-2H-cyclopenta[4,5]pyrrolo[1,2-a]pyrazin-1(6H)-one] |
| – | 0.65 nM | CC(C)Oc1c2c(n3c1C(=O)N(c1nccc(-c4cc(Nc5ccc(N6CCN(C7COC7)C[C@@H]6C)cn5)c(=O)n(C)c4)c1CO)CC3)CC(C)(C)C2 [Example H24, (S)-2-(3′-(hydroxymethyl)-1-methyl-5-((5-(2-methyl-4-(oxetan-3-yl)piperazin-1-yl)pyridin-2-yl)amino)-6-oxo-1,6-dihydro-[3,4′-bipyridin]-2′-yl)-9-isopropoxy-7,7-dimethyl-3,4,7,8-tetrahydro-2H-cyclopenta[4,5]pyrrolo[1,2-a]pyrazin-1(6H)-one] |
| – | 0.44 nM | C[C@H]1CN(C2COC2)CCN1c1ccc(Nc2cc(-c3ccnc(N4CCn5c6c(c(N)c5C4=O)CC(C)(C)C6)c3CO)cn(C)c2=O)nc1 [Example H25, (S)-9-amino-2-(3′-(hydroxymethyl)-1-methyl-5-((5-(2-methyl-4-(oxetan-3-yl)piperazin-1-yl)pyridin-2-yl)amino)-6-oxo-1,6-dihydro-[3,4′-bipyridin]-2′-yl)-7,7-dimethyl-3,4,7,8-tetrahydro-2H-cyclopenta[4,5]pyrrolo[1,2-a]pyrazin-1(6H)-one] |
| – | 0.46 nM | CNc1c2c(n3c1C(=O)N(c1nccc(-c4cc(Nc5ccc(N6CCN(C7COC7)C[C@@H]6C)cn5)c(=O)n(C)c4)c1CO)CC3)CC(C)(C)C2 [Example H26, (S)-2-(3′-(hydroxymethyl)-1-methyl-5-((5-(2-methyl-4-(oxetan-3-yl)piperazin-1-yl)pyridin-2-yl)amino)-6-oxo-1,6-dihydro-[3,4′-bipyridin]-2′-yl)-9-methylamino-7,7-dimethyl-3,4,7,8-tetrahydro-2H-cyclopenta[4,5]pyrrolo[1,2-a]pyrazin-1(6H)-one] |

| Structure (SMILES) | IC50 [1] | IC50 (BTK kinase) |
| --- | --- | --- |
| C[C@H]1CN(C2COC2)CCN1c1ccc(Nc2cc(-c3ccnc(N4CCn5c6c(c(F)c5C4=O)CC(C)(C)C6)c3CO)cn(C)c2=O)nc1 [Example H01, (S)-9-fluoro-2-(3′-(hydroxymethyl)-1-methyl-5-((5-(2-methyl-4-(oxetan-3-yl)piperazin-1-yl)pyridin-2-yl)amino)-6-oxo-1,6-dihydro-[3,4′-bipyridin]-2′-yl)-7,7-dimethyl-3,4,7,8-tetrahydro-2H-cyclopenta[4,5]pyrrolo[1,2-a]pyrazin-1(6H)-one] | 24 nM | 0.23 nM |
| C=CC(=O)N1CCC[C@@H](n2nc(-c3ccc(Oc4ccccc4)cc3)c3c(N)ncnc32)C1 [Ibrutinib, reference compound] | 87 nM | – |
